How the values were obtained:
Assay type in all cases: biochemical
[1] = molecular target: human butyrylcholinesterase (Homo sapiens, UniProt P06276); experiment: BChE inhibition, modified Ellman's spectrophotometric method; conditions: for inhibition at 100 µM / inhibition at 1000 µM: read-out: BChE % inhibition
MAO-B = molecular target: T1, MAO-B (Homo sapiens, UniProt P27338); experiment: MAO-B inhibition, in vitro fluorometric method; conditions: for inhibition at 1000 µM: read-out: MAO-B % inhibition, 10^−3 M; for inhibition at 100 µM: read-out: MAO-B % inhibition, 10^−4 M
T1 sequence (P27338 1-520): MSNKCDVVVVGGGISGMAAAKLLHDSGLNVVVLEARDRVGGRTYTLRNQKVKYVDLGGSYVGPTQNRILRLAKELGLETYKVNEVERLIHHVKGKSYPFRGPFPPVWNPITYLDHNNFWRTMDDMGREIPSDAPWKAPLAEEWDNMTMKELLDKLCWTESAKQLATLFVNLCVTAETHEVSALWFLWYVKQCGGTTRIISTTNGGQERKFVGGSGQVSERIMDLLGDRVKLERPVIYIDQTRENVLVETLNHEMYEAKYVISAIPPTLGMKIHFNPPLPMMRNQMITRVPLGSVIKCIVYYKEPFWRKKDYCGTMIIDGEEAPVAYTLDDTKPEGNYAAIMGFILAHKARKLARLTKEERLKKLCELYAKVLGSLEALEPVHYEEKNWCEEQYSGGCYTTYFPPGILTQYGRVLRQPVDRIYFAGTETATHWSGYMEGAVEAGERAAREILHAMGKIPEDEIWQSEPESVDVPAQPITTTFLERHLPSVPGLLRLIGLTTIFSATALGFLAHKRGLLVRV

[2] = molecular target: Human acetylcholinesterase (Homo sapiens, UniProt P22303); experiment: AChE inhibition, modified Ellman's spectrophotometric method; conditions: for inhibition at 1000 µM: read-out: AChE % inhibition, 10^−3 M; for inhibition at 100 µM: read-out: AChE % inhibition, 10^−4 M
Human acetylcholinesterase, sequence (P22303 32-614): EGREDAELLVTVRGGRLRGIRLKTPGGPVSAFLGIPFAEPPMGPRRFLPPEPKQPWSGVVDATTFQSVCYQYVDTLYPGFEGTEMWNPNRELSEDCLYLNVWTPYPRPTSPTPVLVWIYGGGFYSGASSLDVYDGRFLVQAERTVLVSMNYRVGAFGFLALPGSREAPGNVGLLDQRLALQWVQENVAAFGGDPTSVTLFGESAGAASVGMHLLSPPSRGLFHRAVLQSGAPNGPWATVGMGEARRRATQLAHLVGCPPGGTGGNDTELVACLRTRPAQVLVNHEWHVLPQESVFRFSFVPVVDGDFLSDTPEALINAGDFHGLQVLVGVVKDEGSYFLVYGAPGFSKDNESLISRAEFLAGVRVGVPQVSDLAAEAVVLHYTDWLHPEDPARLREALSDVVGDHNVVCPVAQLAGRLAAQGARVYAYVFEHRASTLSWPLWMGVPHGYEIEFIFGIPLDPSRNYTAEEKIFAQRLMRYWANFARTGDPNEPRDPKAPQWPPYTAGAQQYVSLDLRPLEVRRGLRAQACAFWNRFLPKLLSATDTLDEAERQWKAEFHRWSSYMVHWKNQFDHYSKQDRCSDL

MAO-A = molecular target: T2, MAO-A (Homo sapiens, UniProt P21397); experiment: MAO-A inhibition, in vitro fluorometric method; conditions: for inhibition at 100 µM / inhibition at 1000 µM: read-out: MAO-A % inhibition
T2 sequence (P21397 1-527): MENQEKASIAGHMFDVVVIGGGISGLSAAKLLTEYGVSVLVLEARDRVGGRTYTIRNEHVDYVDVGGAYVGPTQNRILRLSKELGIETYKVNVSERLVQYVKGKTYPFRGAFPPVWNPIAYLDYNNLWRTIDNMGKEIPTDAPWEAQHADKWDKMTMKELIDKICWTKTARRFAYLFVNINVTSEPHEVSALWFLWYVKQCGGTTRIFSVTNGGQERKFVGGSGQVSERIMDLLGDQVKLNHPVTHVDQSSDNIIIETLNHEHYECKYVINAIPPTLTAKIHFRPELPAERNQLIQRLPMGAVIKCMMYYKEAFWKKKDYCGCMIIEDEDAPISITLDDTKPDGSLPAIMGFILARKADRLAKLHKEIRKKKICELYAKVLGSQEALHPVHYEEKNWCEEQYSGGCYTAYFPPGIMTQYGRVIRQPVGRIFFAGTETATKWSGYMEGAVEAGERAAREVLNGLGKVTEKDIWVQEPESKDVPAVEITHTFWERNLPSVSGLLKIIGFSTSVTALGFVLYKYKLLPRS

beta amyloid 1–42 (Aβ42) = beta amyloid 1–42 (Aβ42) (Homo sapiens, UniProt P05067); experiment: fluorometric beta amyloid 1–42; conditions: for inhibition at 0.01 µM / inhibition at 0.1 µM / inhibition at 1 µM / inhibition at 10 µM: read-out: Percent inhibition of beta amyloid 1–42 (Aβ42) peptide aggregation
beta amyloid 1–42 (Aβ42), sequence (P05067 672-713): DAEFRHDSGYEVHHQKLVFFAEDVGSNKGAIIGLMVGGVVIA

human butyrylcholinesterase, sequence (P06276 29-602): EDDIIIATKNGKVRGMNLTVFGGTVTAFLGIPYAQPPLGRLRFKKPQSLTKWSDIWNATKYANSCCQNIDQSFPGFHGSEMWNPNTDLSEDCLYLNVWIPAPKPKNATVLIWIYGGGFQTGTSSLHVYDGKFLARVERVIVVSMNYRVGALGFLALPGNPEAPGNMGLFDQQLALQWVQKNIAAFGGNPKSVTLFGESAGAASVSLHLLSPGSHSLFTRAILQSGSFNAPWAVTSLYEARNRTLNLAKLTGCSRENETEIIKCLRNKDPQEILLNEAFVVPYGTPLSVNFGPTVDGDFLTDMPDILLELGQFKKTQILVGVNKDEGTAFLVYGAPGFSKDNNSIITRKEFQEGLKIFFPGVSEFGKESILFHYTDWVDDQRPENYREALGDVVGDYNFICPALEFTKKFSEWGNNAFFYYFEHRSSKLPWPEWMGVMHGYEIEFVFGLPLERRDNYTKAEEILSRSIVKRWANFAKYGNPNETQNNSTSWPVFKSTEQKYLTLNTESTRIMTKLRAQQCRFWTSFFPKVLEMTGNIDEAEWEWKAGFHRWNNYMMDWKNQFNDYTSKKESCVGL

| SMILES | IC50 [1] [µM] | inhibition at 100 µM [1] [%] | inhibition at 1000 µM [1] [%] | IC50 (MAO-B) [µM] | IC50 [2] [µM] | inhibition at 1000 µM [2] [%] | IC50 (MAO-A) [µM] | inhibition at 100 µM (MAO-A) [%] | inhibition at 1000 µM (MAO-A) [%] | IC50 (beta amyloid 1–42 (Aβ42)) [µM] | inhibition at 0.01 µM (beta amyloid 1–42 (Aβ42)) [%] | inhibition at 0.1 µM (beta amyloid 1–42 (Aβ42)) [%] | inhibition at 1 µM (beta amyloid 1–42 (Aβ42)) [%] | inhibition at 10 µM (beta amyloid 1–42 (Aβ42)) [%] | inhibition at 1000 µM (MAO-B) [%] | inhibition at 100 µM (MAO-B) [%] | inhibition at 100 µM [2] [%] |
| --- | --- | --- | --- | --- | --- | --- | --- | --- | --- | --- | --- | --- | --- | --- | --- | --- | --- |
| CN1CCN(Cc2ccc(C(=O)Nc3nc4ccccc4s3)cc2)CC1 [4a, N-(Benzo[d]thiazol-2-yl)-4-((4-methylpiperazine-1-yl)methyl)benzamide] | > 1000 | 26.5 ± 0.8 | 38.6 ± 0.7 | 0.0674 ± 0.0031 | 0.0563 ± 0.0025 | 93.3 ± 1.4 | > 100 | 38.6 ± 0.7 | 55.3 ± 0.9 | 0.256 ± 0.011 | 47.4 ± 1.1 | 70.4 ± 2.8 | 86.4 ± 2.7 | 91.9 ± 3.1 |  |  |  |
| CCN1CCN(Cc2ccc(C(=O)Nc3nc4ccccc4s3)cc2)CC1 [4b, N-(Benzo[d]thiazol-2-yl)-4-((4-ethylpiperazine-1-yl)methyl)benzamide] | > 1000 | 24.4 ± 0.6 | 35.7 ± 0.9 | > 100 | > 100 | 85.6 ± 1.3 | > 1000 | 36.4 ± 0.8 | 46.5 ± 0.8 |  |  |  |  |  | 73.3 ± 1.2 | 42.3 ± 0.8 | 47.6 ± 0.8 |
| C=CCN1CCN(Cc2ccc(C(=O)Nc3nc4ccccc4s3)cc2)CC1 [4c, 4-((4-Allylpiperazine-1-yl)methyl)-N-(benzo[d]thiazol-2-yl)benzamide] | > 1000 | 20.2 ± 0.7 | 30.9 ± 0.7 | > 100 | > 100 | 82.8 ± 1.5 | > 1000 | 34.6 ± 0.8 | 48.3 ± 0.9 |  |  |  |  |  | 69.6 ± 1.2 | 40.3 ± 0.9 | 48.2 ± 0.9 |
| C#CCN1CCN(Cc2ccc(C(=O)Nc3nc4ccccc4s3)cc2)CC1 [4d, N-(Benzo[d]thiazol-2-yl)-4-((4-(prop-2-yn-1-yl)piperazine-1-yl)methyl)benzamide] | > 1000 | 28.4 ± 0.9 | 37.1 ± 0.8 | 0.11 ± 0.0043 | 0.0896 ± 0.0032 | 91.6 ± 1.3 | > 100 | 39.7 ± 0.9 | 57.6 ± 0.9 | 0.242 ± 0.0097 | 36.2 ± 1 | 55.2 ± 1.4 | 81.5 ± 2.5 | 89.8 ± 3 |  |  |  |
| CC(C)N1CCN(Cc2ccc(C(=O)Nc3nc4ccccc4s3)cc2)CC1 [4e, N-(Benzo[d]thiazol-2-yl)-4-((4-isopropylpiperazine-1-yl)methyl)benzamide] | > 1000 | 26.8 ± 0.7 | 39.1 ± 0.8 | > 100 | > 100 | 83.9 ± 1.7 | > 1000 | 33.8 ± 0.7 | 44.7 ± 0.9 |  |  |  |  |  | 72.7 ± 1.1 | 44.6 ± 0.8 | 46.9 ± 0.8 |
| CN(C)CCCN1CCN(Cc2ccc(C(=O)Nc3nc4ccccc4s3)cc2)CC1 [4g, N-(Benzo[d]thiazol-2-yl)-4-((4-(3-(dimethylamino)propyl)piperazine-1-yl)methyl)benzamide] | > 1000 | 30.9 ± 0.8 | 41.5 ± 0.8 | > 100 | 0.0367 ± 0.0014 | 94.3 ± 1 | > 100 | 40.1 ± 0.9 | 64.9 ± 1.1 |  |  |  |  |  | 74.2 ± 1 | 42.5 ± 0.9 |  |
| COc1ccc2sc(NC(=O)c3ccc(CN4CCN(C)CC4)cc3)nc2c1 [4h, N-(5-Methoxybenzo[d]thiazol-2-yl)-4-((4-methylpiperazine-1-yl)methyl)benzamide] | > 1000 | 27 ± 0.7 | 33.5 ± 0.8 | 0.0851 ± 0.0038 | 0.0649 ± 0.0029 | 92.3 ± 1.1 | > 100 | 38.5 ± 0.6 | 60.5 ± 0.9 | 0.296 ± 0.013 | 41.8 ± 1 | 64.8 ± 1.9 | 83.2 ± 3.3 | 90.7 ± 2.9 |  |  |  |
| CCN1CCN(Cc2ccc(C(=O)Nc3nc4cc(OC)ccc4s3)cc2)CC1 [4i, 4-((4-Ethylpiperazine-1-yl)methyl)-N-(5-methoxybenzo[d]thiazol-2-yl)benzamide] | > 1000 | 25.2 ± 0.9 | 39.8 ± 0.9 | > 100 | > 100 | 86.9 ± 1.2 | > 1000 | 30.6 ± 0.7 | 43.8 ± 0.9 |  |  |  |  |  | 75.6 ± 1.2 | 41.7 ± 0.9 | 48 ± 0.9 |
| C=CCN1CCN(Cc2ccc(C(=O)Nc3nc4cc(OC)ccc4s3)cc2)CC1 [4j, 4-((4-Allylpiperazine-1-yl)methyl)-N-(5-methoxybenzo[d]thiazol-2-yl)benzamide] | > 1000 | 22.6 ± 0.8 | 32.9 ± 0.8 | > 100 | > 100 | 82.5 ± 1.5 | > 1000 | 32.9 ± 0.7 | 45.2 ± 0.9 |  |  |  |  |  | 74.5 ± 1.1 | 43.5 ± 0.8 | 47.6 ± 0.8 |
| C#CCN1CCN(Cc2ccc(C(=O)Nc3nc4cc(OC)ccc4s3)cc2)CC1 [4k, N-(5-Methoxybenzo[d]thiazol-2-yl)-4-((4-(prop-2-yn-1-yl)piperazine-1-yl)methyl)benzamide] | > 1000 | 26.4 ± 0.7 | 30.4 ± 0.7 | 0.124 ± 0.0058 | 0.102 ± 0.0048 | 90.3 ± 1.5 | > 100 | 39.9 ± 0.8 | 58.6 ± 0.9 |  | 35.4 ± 1 | 48.9 ± 1.3 | 77.7 ± 2.7 | 87.1 ± 3.2 |  |  |  |
| COc1ccc2sc(NC(=O)c3ccc(CN4CCN(C(C)C)CC4)cc3)nc2c1 [4l, 4-((4-Isopropylpiperazine-1-yl)methyl)-N-(5-methoxybenzo[d]thiazol-2-yl)benzamide] | > 1000 | 24.3 ± 0.7 | 38.1 ± 0.9 | > 100 | > 100 | 81.7 ± 1.3 | > 1000 | 34 ± 0.9 | 40.6 ± 0.9 |  |  |  |  |  | 77.9 ± 1.4 | 40.7 ± 0.9 | 48.1 ± 0.9 |
| COc1ccc2sc(NC(=O)c3ccc(CN4CCN(CCN(C)C)CC4)cc3)nc2c1 [4m, 4-((4-(2-(Dimethylamino)ethyl)piperazine-1-yl)methyl)-N-(5-methoxybenzo[d]thiazol-2-yl)benzamide] | > 1000 | 31.9 ± 0.8 | 42.4 ± 0.8 | 0.0567 ± 0.0022 | 0.0278 ± 0.001 | 95.3 ± 1.2 | > 100 | 37.9 ± 0.8 | 61.3 ± 0.9 | 0.199 ± 0.0088 | 53.6 ± 1 | 72.5 ± 2.2 | 88.9 ± 2 | 94.7 ± 2.1 |  |  |  |
| COc1ccc2sc(NC(=O)c3ccc(CN4CCN(CCCN(C)C)CC4)cc3)nc2c1 [4n, 4-((4-(3-(Dimethylamino)propyl)piperazine-1-yl)methyl)-N-(5-methoxybenzo[d]thiazol-2-yl)benzamide] | > 1000 | 30.4 ± 0.9 | 40.9 ± 0.9 | > 100 | 0.0421 ± 0.0018 | 95.3 ± 1.7 | > 100 | 38.8 ± 0.7 | 60.1 ± 0.8 |  |  |  |  |  | 70.3 ± 1.3 | 41 ± 0.9 |  |
| O=C(NCCN1CCOCC1)c1ccc(Cl)cc1 [Moc., moclobemide, reference compound] |  |  |  |  |  |  |  | 82.1 ± 2.7 | 94.1 ± 2.8 |  |  |  |  |  |  |  |  |

From publication PMC9389372 (RSC Advances, 2022)
